This is an account of results in ChEMBL document CHEMBL5291721, “A preclinical secondary pharmacology resource illuminates target-adverse drug reaction associations of marketed drugs” (Nat Commun, 2023).

By AC50 is commonly meant the midpoint of the concentration-response curve, whichever way the signal moves. A lower AC50 goes with greater potency.

For one test, the target named is T1, B2 bradykinin receptor (Homo sapiens, UniProt P30411).
T1 sequence (P30411 whole entry): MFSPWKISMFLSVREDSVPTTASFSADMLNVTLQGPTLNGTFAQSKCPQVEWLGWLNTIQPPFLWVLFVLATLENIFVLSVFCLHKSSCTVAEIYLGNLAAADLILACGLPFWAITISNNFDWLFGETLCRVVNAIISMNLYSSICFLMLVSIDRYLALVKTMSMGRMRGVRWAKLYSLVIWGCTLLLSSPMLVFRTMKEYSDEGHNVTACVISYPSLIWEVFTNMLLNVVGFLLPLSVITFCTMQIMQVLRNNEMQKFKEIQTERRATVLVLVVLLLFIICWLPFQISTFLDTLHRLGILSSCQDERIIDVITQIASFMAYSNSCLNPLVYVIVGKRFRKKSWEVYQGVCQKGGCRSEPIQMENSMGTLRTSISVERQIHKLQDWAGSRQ

Test [1] has as its target T2, Alpha-1A adrenergic receptor (Homo sapiens, UniProt P35348).
T2 sequence (P35348 whole entry): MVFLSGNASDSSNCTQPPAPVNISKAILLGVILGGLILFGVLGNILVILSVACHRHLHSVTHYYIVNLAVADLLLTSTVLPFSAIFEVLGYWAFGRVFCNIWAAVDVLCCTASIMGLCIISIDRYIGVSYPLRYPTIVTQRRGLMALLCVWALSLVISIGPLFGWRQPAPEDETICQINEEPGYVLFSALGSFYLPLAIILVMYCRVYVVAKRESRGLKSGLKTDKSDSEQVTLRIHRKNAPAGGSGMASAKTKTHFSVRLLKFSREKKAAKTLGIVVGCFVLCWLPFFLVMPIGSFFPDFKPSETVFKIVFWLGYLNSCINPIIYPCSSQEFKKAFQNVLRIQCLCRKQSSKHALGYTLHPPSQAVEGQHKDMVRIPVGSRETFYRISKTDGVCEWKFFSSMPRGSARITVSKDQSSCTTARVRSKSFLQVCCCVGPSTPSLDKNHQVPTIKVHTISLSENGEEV
Format: functional, cell-based.

In test [2] the target is Kappa-type opioid receptor (Homo sapiens, UniProt P41145).
Chain of Kappa-type opioid receptor (P41145 whole entry): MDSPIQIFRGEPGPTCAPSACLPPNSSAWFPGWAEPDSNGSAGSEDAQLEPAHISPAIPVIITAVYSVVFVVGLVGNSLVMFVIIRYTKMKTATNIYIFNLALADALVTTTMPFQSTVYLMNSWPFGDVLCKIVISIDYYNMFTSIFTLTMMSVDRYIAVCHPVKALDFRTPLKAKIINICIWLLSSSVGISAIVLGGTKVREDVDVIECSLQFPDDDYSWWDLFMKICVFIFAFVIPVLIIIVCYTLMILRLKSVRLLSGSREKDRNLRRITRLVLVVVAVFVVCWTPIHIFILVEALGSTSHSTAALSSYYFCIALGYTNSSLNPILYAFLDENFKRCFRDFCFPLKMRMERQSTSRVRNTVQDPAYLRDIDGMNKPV
The target of test [3] is 5-hydroxytryptamine receptor 2B (Homo sapiens, UniProt P41595). In kind it is functional, cell-based.
Chain of 5-hydroxytryptamine receptor 2B (P41595 whole entry): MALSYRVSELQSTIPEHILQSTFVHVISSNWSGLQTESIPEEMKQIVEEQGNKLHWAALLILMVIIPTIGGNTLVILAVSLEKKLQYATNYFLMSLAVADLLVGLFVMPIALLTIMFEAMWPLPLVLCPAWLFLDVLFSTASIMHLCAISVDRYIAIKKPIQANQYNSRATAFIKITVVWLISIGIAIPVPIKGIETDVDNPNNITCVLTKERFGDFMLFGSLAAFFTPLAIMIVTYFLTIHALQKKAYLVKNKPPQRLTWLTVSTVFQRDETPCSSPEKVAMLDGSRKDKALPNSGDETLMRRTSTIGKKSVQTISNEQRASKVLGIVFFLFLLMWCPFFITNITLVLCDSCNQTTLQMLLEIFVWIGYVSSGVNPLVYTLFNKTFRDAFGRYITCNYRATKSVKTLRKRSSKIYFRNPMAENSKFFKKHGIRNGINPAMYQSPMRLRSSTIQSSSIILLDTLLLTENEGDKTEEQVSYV
In test [4] the target is T3, Alpha-2A adrenergic receptor (Homo sapiens, UniProt P08913).
T3 sequence (P08913 whole entry): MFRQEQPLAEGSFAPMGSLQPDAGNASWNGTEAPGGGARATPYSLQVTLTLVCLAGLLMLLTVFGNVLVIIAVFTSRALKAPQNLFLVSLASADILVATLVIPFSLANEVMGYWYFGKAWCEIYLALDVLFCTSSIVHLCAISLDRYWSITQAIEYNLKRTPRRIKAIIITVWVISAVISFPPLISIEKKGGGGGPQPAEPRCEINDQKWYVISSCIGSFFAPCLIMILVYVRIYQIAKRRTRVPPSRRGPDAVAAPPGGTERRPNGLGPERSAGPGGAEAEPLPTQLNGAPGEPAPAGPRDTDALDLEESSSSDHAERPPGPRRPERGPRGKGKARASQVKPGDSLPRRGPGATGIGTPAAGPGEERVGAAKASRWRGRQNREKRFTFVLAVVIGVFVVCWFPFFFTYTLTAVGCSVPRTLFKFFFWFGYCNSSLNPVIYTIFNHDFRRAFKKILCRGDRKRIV
Format: functional, cell-based.

The next test addresses T4, Thromboxane A2 receptor (Homo sapiens, UniProt P21731).
T4 sequence (P21731 whole entry): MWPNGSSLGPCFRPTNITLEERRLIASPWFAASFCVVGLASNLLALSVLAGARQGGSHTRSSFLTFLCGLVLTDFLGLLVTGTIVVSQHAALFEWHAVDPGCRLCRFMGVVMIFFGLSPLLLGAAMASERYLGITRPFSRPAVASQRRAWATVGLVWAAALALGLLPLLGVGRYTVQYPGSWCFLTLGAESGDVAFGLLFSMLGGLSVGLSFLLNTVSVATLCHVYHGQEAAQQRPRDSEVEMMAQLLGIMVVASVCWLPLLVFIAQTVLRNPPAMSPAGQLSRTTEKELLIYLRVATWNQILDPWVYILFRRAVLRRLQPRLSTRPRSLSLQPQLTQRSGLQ
Note: assay procedure not described here.

In the case of `COc1ccc(-c2ccc3cc(C(=O)O)ccc3c2)cc1C12CC3CC(CC(C3)C1)C2`, the AC50 (at B2 bradykinin receptor; in test [1]; in test [2]; in test [3]; in test [4]; on Thromboxane A2 receptor) was more than 30 µM throughout.

With `CCOC(=O)[C@H](CCc1ccccc1)N[C@@H](C)C(=O)N1C(=O)N(C)C[C@H]1C(=O)O`, the AC50 (at B2 bradykinin receptor; in test [1]; in test [3]; in test [4]; at Thromboxane A2 receptor) was more than 30 µM in each case.

`CC(C)(C)C(=O)Oc1ccc(S(=O)(=O)Nc2ccccc2C(=O)NCC(=O)O)cc1`: the AC50 (on B2 bradykinin receptor; in test [2]; in test [3]; in test [4]; at Thromboxane A2 receptor) was more than 30 µM each time.

Take `O=C(O)CCCCCCNC1c2ccccc2CCc2ccccc21` [AMINEPTINE]: the AC50 (on B2 bradykinin receptor; in test [1]; in test [2]; in test [3]; in test [4]; at Thromboxane A2 receptor) was more than 30 µM each time.

On to `CCOC(=O)OC(C)OC1=C(C(=O)Nc2ccccn2)N(C)S(=O)(=O)c2ccccc21` (centres undefined) [AMPIROXICAM], for which the AC50 (on B2 bradykinin receptor; in test [1]; in test [2]; in test [3]; in test [4]; at Thromboxane A2 receptor) was more than 30 µM throughout.

`CC(=O)OCC(=O)[C@@]12N=C(C)O[C@@H]1C[C@H]1[C@@H]3CCC4=CC(=O)C=C[C@]4(C)[C@H]3[C@@H](O)C[C@@]12C` [DEFLAZACORT]: the AC50 (on B2 bradykinin receptor; in test [1]; in test [2]; in test [3]; in test [4]; at Thromboxane A2 receptor) was more than 30 µM each time.

On to `Nc1nc(N)nc(-c2cc(Cl)ccc2Cl)n1` [IRSOGLADINE], for which the half-maximal activity concentration (AC50) (on B2 bradykinin receptor; in test [1]; in test [3]; in test [4]; on Thromboxane A2 receptor) was more than 30 µM in each case.

`CNC(C)CCC=C(C)C` (centres undefined) [ISOMETHEPTENE]: the AC50 on B2 bradykinin receptor and on Thromboxane A2 receptor was more than 30 µM throughout.

For the compound `CN1C(=O)C(O)N=C(c2ccccc2Cl)c2cc(Cl)ccc21` (centres undefined) [LORMETAZEPAM], the AC50 on B2 bradykinin receptor was more than 30 µM; in test [1], more than 30 µM; in test [2], 8.1 µM; in test [3], more than 30 µM; in test [4], 16 µM; on Thromboxane A2 receptor, more than 30 µM.

Turning to `OC(CNCC(O)C1CCc2cc(F)ccc2O1)C1CCc2cc(F)ccc2O1` (centres undefined) [NEBIVOLOL], the AC50 at B2 bradykinin receptor is more than 30 µM; in test [1], 3.1 µM; in test [2], 10 µM; in test [3], more than 30 µM; in test [4], more than 30 µM; at Thromboxane A2 receptor it was more than 30 µM.

For `COc1ccc2c3c1O[C@H]1C(=O)CC[C@@]4(O)[C@@H](C2)N(C)CC[C@]314` [OXYCODONE], the AC50 (on B2 bradykinin receptor; in test [1]; in test [3]; in test [4]; at Thromboxane A2 receptor) was more than 30 µM in each case.

Consider `O=C(O)/C=C/c1ccc(Cn2ccnc2)cc1` [OZAGREL], for which the AC50 (at B2 bradykinin receptor; in test [2]; in test [3]; in test [4]; on Thromboxane A2 receptor) was more than 30 µM throughout.

As to `Cc1ccc(-n2nccn2)c(C(=O)N2CCN(c3nc4cc(Cl)ccc4o3)CC[C@H]2C)c1` [SUVOREXANT], the AC50 at B2 bradykinin receptor was more than 30 µM; in test [1] it was more than 30 µM; in test [2], more than 30 µM; in test [3], more than 30 µM; in test [4], more than 30 µM; at Thromboxane A2 receptor, more than 10 µM.

`O=C(NCCNCC(O)COc1ccc(O)cc1)N1CCOCC1` (centres undefined) [XAMOTEROL]: the half-maximal activity concentration (AC50) (on B2 bradykinin receptor; in test [2]; in test [3]; in test [4]; on Thromboxane A2 receptor) was more than 30 µM throughout.
